In article PMC8043142 (Journal of medicinal chemistry, 2021):

Key:
[1] = target: disulfide stabilized HIV-1NL4-3 CA hexamer (Human immunodeficiency virus type 1 group M subtype B, UniProt P12493, A146C/E177C/M317A/W316A); assay: SPR direct interaction analysis with immobilized CA hexamer; assay type: binding; settings: for kd: SPR, 25 °C, 1:1 binding model
[2] = Metabolic stability in human liver microsomes; settings: half-life relative to S-PF-74
[3] = enantiomerically pure compounds

Structure (SMILES)	binding to CA hexamer via SPR (in words) [1, 3]	kd [1, 3]	other results
CN(C(=O)[C@@H](Cc1ccccc1)NC(=O)Cc1n[nH]c2c(N)cccc12)c1ccc2[nH]ncc2c1 [R-CX17, (R)-2-(2-(7-amino-1H-indazol-3-yl)acetamido)-N-(1H-indazol-5-yl)-N-methyl-3-phenylpropanamide]	little to no binding interactions		
Cc1[nH]c2ccccc2c1CC(=O)N[C@@H](Cc1ccccc1)C(=O)N(C)c1ccc2[nH]ncc2c1 [S-CX16, (S)-N-(1H-Indazol-5-yl)-N-methyl-2-(2-(2-methyl-1H-indol-3-yl)acetamido)-3-phenylpropanamide]	robust binding	1.09 ± 0.043 × 10^−2 s^−1	Fold Increase (over S-PF-74) [2]: 2.0 fold; improvement in affinity over S-PF-74 [1, 3]: > 2 fold
CN(C(=O)[C@H](Cc1ccccc1)NC(=O)Cc1c[nH]c2c(N)cccc12)c1ccccc1 [S-CX15, (S)-2-(2-(7-Amino-1H-indol-3-yl)acetamido)-N-methyl-N,3-diphenylpropanamide]	robust binding	6.60 ± 0.328 × 10^−2 s^−1	Fold Increase (over S-PF-74) [2]: 30.8 fold
CN(C(=O)C(Cc1ccccc1)NC(=O)Cc1n[nH]c2c(N)cccc12)c1ccc2[nH]ncc2c1 (centres unmarked) [CX17, 2-(2-(7-amino-1H-indazol-3-yl)acetamido)-N-(1H-indazol-5-yl)-N-methyl-3-phenylpropanamide]			IC50 relative to predicted and experimentally determined affinity (HIV-1 pseudoviruses; racemic compound, IC50 higher than affinity): approximately 5 fold
Cc1[nH]c2ccccc2c1CC(=O)N[C@H](Cc1ccccc1)C(=O)N(C)c1ccc2[nH]ncc2c1 [R-CX16, (R)-N-(1H-Indazol-5-yl)-N-methyl-2-(2-(2-methyl-1H-indol-3-yl)acetamido)-3-phenylpropanamide]	little to no binding interactions		
Cc1[nH]c2ccccc2c1CC(=O)N[C@@H](Cc1ccccc1)C(=O)N(C)c1ccccc1 [S-PF-74, (S)-N-methyl-2-(2-(2-methyl-1H-indol-3-yl)acetamido)-N,3-diphenylpropanamide, reference compound]	robust binding	2.92 ± 0.111 × 10^−2 s^−1	
Cc1[nH]c2ccccc2c1CC(=O)N[C@H](Cc1ccccc1)C(=O)N(C)c1ccccc1 [R-PF-74, (R)-N-methyl-2-(2-(2-methyl-1H-indol-3-yl)acetamido)-N,3-diphenylpropanamide, reference compound]	little to no binding interactions		
CN(C(=O)[C@@H](Cc1ccccc1)NC(=O)Cc1c[nH]c2c(N)cccc12)c1ccccc1 [R-CX15, (R)-2-(2-(7-Amino-1H-indol-3-yl)acetamido)-N-methyl-N,3-diphenylpropanamide]	little to no binding interactions		
Cc1[nH]c2ccccc2c1CC(=O)NC(Cc1ccccc1)C(=O)N(C)c1ccc2[nH]ncc2c1 (centres unmarked) [CX16, N-(1H-indazol-5-yl)-N-methyl-2-(2-(2-methyl-1H-indol-3-yl)acetamido)-3-phenylpropanamide]			kd ([1]; racemic compounds): 1.21 ± 0.037 × 10^−2 s^−1
CN(C(=O)[C@H](Cc1ccccc1)NC(=O)Cc1n[nH]c2c(N)cccc12)c1ccc2[nH]ncc2c1 [S-CX17, (S)-2-(2-(7-amino-1H-indazol-3-yl)acetamido)-N-(1H-indazol-5-yl)-N-methyl-3-phenylpropanamide]	robust binding	9.66 ± 0.145 × 10^−2 s^−1	Fold Increase (over S-PF-74) [2]: 204 fold; change of antiviral potency relative to parental compound (HIV-1 pseudoviruses; slightly diminished potency): ~3.5 fold
Cc1[nH]c2ccccc2c1CC(=O)NC(Cc1ccccc1)C(=O)N(C)c1ccccc1 (centres unmarked) [PF-74, reference compound]			kd ([1]; racemic compounds): 2.93 ± 0.182 × 10^−2 s^−1
